The results in this text go back to patent US8835502B2, “Treatment of friedreich's ataxia using histone deacetylase inhibitors” (The Scripps Research Institute, priority 2005, dated 2014).

In general, IC50 refers to the midpoint of a concentration-inhibition curve.

The test system of data set [1] is frataxin mRNA in affected GM15850 cells. The experiment in a line: Frataxin mRNA by real-time quantitative RT-PCR in FRDA lymphoid cell line GM15850. Type of data set: cell-based, human. The method, then:
(§1) Real-time quantitative RT-PCR analysis was performed essentially as described in Chuma et al., Hepatology 37:198-207 (2003) using the following primers for the frataxin gene: 5′-[…]-3′ and 5′-[…]-3′. RNA was standardized by quantification of GAPDH mRNA as described in Pattyn et al., Nucl. Acids Res. 31:122-3 (2003), and all values are expressed relative to GAPDH. Quantitative real-time RT-PCR was performed using iScript One-Step RT-PCR kit with SYBR green (BioRad). Statistical analysis was performed on three independent quantitative RT-PCR experiments for each RNA sample, and error bars shown in the figures represent standard errors of the mean.

Data set [2] addresses total histone deacetylation in a HeLa nuclear extract. The experiment in a line: Histone deacetylase assay (BioMol AK500 kit), HeLa nuclear extract. Type of data set: biochemical. As to conditions: HeLa nuclear extract; read-out: IC50, total histone deacetylation inhibition (converted). How it is done:
Each of the histone deacetylase inhibitors was assayed with the BioMol AK500 kit to determine IC50 values. Samples were processed as described by BioMol and read with a 96-well fluorescence plate reader. A semi-logarithmic plot of the data was analyzed with Kaleidagraph software to obtain the IC50 value.

Data set [3] concerns frataxin protein in the FRDA lymphoid cell line. The experiment in a line: Frataxin protein by western blot in FRDA lymphoid cell line. Type of data set: cell-based, human. Particulars: 4 days.
Data set [4] relates to frataxin mRNA in primary lymphocytes. The experiment in a line: Frataxin mRNA by qRT-PCR in primary lymphocytes from FRDA patients, carriers and normal relatives. Type of data set: cell-based, human. As to conditions: 48 hours. The method, then:
as §1
The Friedreich's Ataxia Research Alliance (Arlington, Va.) recruited a series of families with affected individuals and siblings or parents for anonymous blood donation (with a Human Subjects Protocol approved by the Scripps Clinic Human Subjects Committee and by NINDS, with appropriate informed consent). Blood was collected in heparinized Vacutainer tubes (#364680, BD Biosciences) and lymphocytes were isolated by density centrifugation using Ficoll-Paque PLUS (Amersham Biosciences), according to the manufacturer. Lymphocytes were maintained in the same culture medium and conditions as the established cell lines, and HDAC inhibitor treatment was as described above. Cells were treated with HDAC inhibitors after 16 h, and RNA isolated after subsequent 48 h incubation. Under these culture conditions, no increases in cell number were observed.
(In general: In qPCR the cycle at which signal appears reflects the starting amount.)

In the next data set the test system is lymphoid cell lines. The experiment in a line: Viability, cytotoxicity (trypan blue exclusion) and growth of lymphoid cell lines. The format is cell-based, human. As to conditions: 1 to 5 μM.
[5] abbreviates: FRDA lymphocytes of affected individual S, 5 μM.

Each structure is given as a SMILES string. Where “and” joins values, the source holds several entries; their conditions need not be identical. Equal entries are not always repeated.

As to `Nc1ccccc1NC(=O)CCCCCCC(=O)Nc1ccccc1` [Compound 4c, N^1-(2-Aminophenyl)-N^8-phenyloctanediamide], the “Effect on frataxin mRNA level (frataxin transcription), FIG. 2B” value in data set [1] (FRDA cell line, each inhibitor at the IC50 value reported by the supplier, normalized to GAPDH) is on record as around 2 fold. For the same compound, the fold induction at 5 µM in data set [1] (Homo sapiens, GM15850, 96 h, affected GM15850 cells, 5 μM, 96 h, normalized to GAPDH mRNA, relative to untreated control cells, read-out: Fold-change of frataxin mRNA) was 1.4 ± 0.06. Moreover, the IC50 in data set [2] is 87 µM. The “Fold change in frataxin protein compared to untreated control cells, normalized to actin” value in data set [3] (2.5 μM) was found to be 1.6 fold. For the same compound, the “Fold change in frataxin protein compared to untreated control cells, normalized to actin” value in data set [3] (5 μM) is ~3 fold and 3.4 fold. In data set [4] (setting [5]), the “Fold increase of relative frataxin mRNA level” value was 1.8 fold and the “Percent increase of relative frataxin mRNA level” value amounted to 80%. Besides, the “Increase of frataxin mRNA” value in data set [4] (lymphocytes from the unaffected sibling A) was “no positive effect”. Moreover, the “Cytotoxicity to the lymphoid cell lines (trypan blue exclusion)” value in the data set with lymphoid cell lines is “not cytotoxic”. Further, the “Effect on cell growth rates” value with lymphoid cell lines (lymphoid cell lines) is given as “does not markedly affect cell growth rates”.
